From ChEMBL document CHEMBL3272269, “Synthesis and antileukemic activities of furanyl, pyranyl, and ribosyl derivatives of 4-(3,3-dimethyl-1-triazeno)imidazole-5-carboxamide and 3-(3,3-dimethyl-1-triazeno)pyrazole-4-carboxamide” (J Med Chem, 1979)
The source made the active and inactive calls. No cut-off for these calls is given here.

What was measured:
Mus musculus [1] = experiment: Toxicity in mouse L1210 cells allografted mouse assessed as reduction in body weight at 200 mg/kg administered on day 1 followed by 5 injections with 1 day interval; assay type: organism-based; parameters: dose 200 mg/kg; conditions: in vivo, 24 h
Mus musculus [2] = experiment: Toxicity in mouse L1210 cells allografted mouse assessed as reduction in body weight at 100 mg/kg administered on day 1 followed by 5 injections with 1 day interval; assay type: organism-based; parameters: dose 100 mg/kg; conditions: in vivo, 24 h
Mus musculus [3] = experiment: Toxicity in mouse L1210 cells allografted mouse assessed as reduction in body weight at 50 mg/kg administered on day 1 followed by 5 injections with 1 day interval; assay type: organism-based; parameters: dose 50 mg/kg; conditions: in vivo, 24 h
L1210 [4] = experiment: Antitumor activity against mouse L1210 cells allografted in mouse assessed as survival at 200 mg/kg administered on day 1 followed by 5 injections with 1 day interval; assay type: functional, organism-based; parameters: dose 200 mg/kg
L1210 [5] = experiment: Antitumor activity against mouse L1210 cells allografted in mouse assessed as survival at 100 mg/kg administered on day 1 followed by 5 injections with 1 day interval; assay type: functional, organism-based; parameters: dose 100 mg/kg
L1210 [6] = experiment: Antitumor activity against mouse L1210 cells allografted in mouse assessed as survival at 50 mg/kg administered on day 1 followed by 5 injections with 1 day interval; assay type: functional, organism-based; parameters: dose 50 mg/kg
L1210 [7] = experiment: Antitumor activity against mouse L1210 cells allografted in mouse assessed as increase in survival at 200 mg/kg administered on day 1 followed by 5 injections with 1 day interval relative to control; assay type: functional
L1210 [8] = experiment: Antitumor activity against mouse L1210 cells allografted in mouse assessed as increase in survival at 100 mg/kg administered on day 1 followed by 5 injections with 1 day interval relative to control; assay type: functional
L1210 [9] = experiment: Antitumor activity against mouse L1210 cells allografted in mouse assessed as increase in survival at 50 mg/kg administered on day 1 followed by 5 injections with 1 day interval relative to control; assay type: functional
Mus musculus [10] = experiment: Toxicity in mouse L1210 cells allografted BDF1 mouse assessed as reduction in body weight at 400 mg/kg administered on day 1 followed by 3 injections with 4 day interval; assay type: organism-based; parameters: dose 400 mg/kg; conditions: in vivo, 96 h
Mus musculus [11] = experiment: Toxicity in mouse L1210 cells allografted BDF1 mouse assessed as reduction in body weight at 200 mg/kg administered on day 1 followed by 3 injections with 4 day interval; assay type: organism-based; parameters: dose 200 mg/kg; conditions: in vivo, 96 h
Mus musculus [12] = experiment: Toxicity in mouse L1210 cells allografted BDF1 mouse assessed as reduction in body weight at 100 mg/kg administered on day 1 followed by 3 injections with 4 day interval; assay type: organism-based; parameters: dose 100 mg/kg; conditions: in vivo, 96 h
L1210 [13] = experiment: Antitumor activity against mouse L1210 cells allografted in mouse assessed as survival at 400 mg/kg administered on day 1 followed by 3 injections with 4 day interval; assay type: functional, organism-based; parameters: dose 400 mg/kg
L1210 [14] = experiment: Antitumor activity against mouse L1210 cells allografted in mouse assessed as survival at 200 mg/kg administered on day 1 followed by 3 injections with 4 day interval; assay type: functional, organism-based; parameters: dose 200 mg/kg
L1210 [15] = experiment: Antitumor activity against mouse L1210 cells allografted in mouse assessed as survival at 100 mg/kg administered on day 1 followed by 3 injections with 4 day interval; assay type: functional, organism-based; parameters: dose 100 mg/kg
L1210 [16] = experiment: Antitumor activity against mouse L1210 cells allografted in mouse assessed as increase in survival at 400 mg/kg administered on day 1 followed by 3 injections with 4 day interval relative to control; assay type: functional
L1210 [17] = experiment: Antitumor activity against mouse L1210 cells allografted in mouse assessed as increase in survival at 200 mg/kg administered on day 1 followed by 3 injections with 4 day interval relative to control; assay type: functional
L1210 [18] = experiment: Antitumor activity against mouse L1210 cells allografted in mouse assessed as increase in survival at 100 mg/kg administered on day 1 followed by 3 injections with 4 day interval relative to control; assay type: functional
Mus musculus [19] = experiment: Toxicity in mouse L1210 cells allografted BDF1 mouse assessed as reduction in body weight at 180 mg/kg administered on day 1 followed by 9 injections with 1 day interval; assay type: organism-based; parameters: dose 180 mg/kg; conditions: in vivo, 24 h
Mus musculus [20] = experiment: Toxicity in mouse L1210 cells allografted BDF1 mouse assessed as reduction in body weight at 109 mg/kg administered on day 1 followed by 9 injections with 1 day interval; assay type: organism-based; parameters: dose 109 mg/kg; conditions: in vivo, 24 h
Mus musculus [21] = experiment: Toxicity in mouse L1210 cells allografted BDF1 mouse assessed as reduction in body weight at 65 mg/kg administered on day 1 followed by 9 injections with 1 day interval; assay type: organism-based; parameters: dose 65 mg/kg; conditions: in vivo, 24 h
Mus musculus [22] = experiment: Toxicity in mouse L1210 cells allografted BDF1 mouse assessed as reduction in body weight at 200 mg/kg administered on day 1 followed by 9 injections with 1 day interval; assay type: organism-based; parameters: dose 200 mg/kg; conditions: in vivo, 24 h
L1210 [23] = experiment: Antitumor activity against mouse L1210 cells allografted in mouse assessed as survival at 200 mg/kg administered on day 1 followed by 9 injections with 1 day interval; assay type: functional, organism-based; parameters: dose 200 mg/kg
L1210 [24] = experiment: Antitumor activity against mouse L1210 cells allografted in mouse assessed as increase in survival at 200 mg/kg administered on day 1 followed by 9 injections with 1 day interval relative to control; assay type: functional

Compound `CN(C)/N=N/c1nn(C2CCCO2)cc1C(N)=O` (centres undefined) has an Activity (Mus musculus [1]) of 3.7 g, an Activity (Mus musculus [2]) of 2.3 g and an Activity (Mus musculus [3]) of 1.8 g. For the same compound, the Activity (L1210 [4]) was “Active”, the Activity (L1210 [5]) was “Active” and the Activity (L1210 [6]) was “Active”. For the same compound, the T/C (L1210 [7]) was 134%, the T/C (L1210 [8]) was 141% and the T/C (L1210 [9]) was 129%.
With `CN(C)/N=N/c1nn(C2CCCCO2)cc1C(N)=O` (centres undefined) the Activity (Mus musculus [10]) was 2.9 g, the Activity (Mus musculus [11]) was 1 g and the Activity (Mus musculus [12]) was 0.9 g. The Activity (L1210 [13]) was “Active”, the Activity (L1210 [14]) was “Active” and the Activity (L1210 [15]) was “Active”. For the same compound, the T/C (L1210 [16]) was 119%, the T/C (L1210 [17]) was 108% and the T/C (L1210 [18]) was 108%.
For `CN(C)/N=N/c1[nH]ncc1C(N)=O`, the Activity (Mus musculus [19]) was 4.9 g, the Activity (Mus musculus [20]) was 3.7 g and the Activity (Mus musculus [21]) was 3.2 g.
For `CC(=O)OC[C@H]1O[C@@H](n2cnc(C(N)=O)c2/N=N/N(C)C)[C@H](OC(C)=O)[C@@H]1OC(C)=O`, the Activity (Mus musculus [1]) was 0.9 g, the Activity (Mus musculus [2]) was 0.3 g and the Activity (L1210 [4]) was “Active”. The Activity (L1210 [5]) was “Active”, the T/C (L1210 [7]) was 95% and the T/C (L1210 [8]) was 104%.
`CC(=O)OC[C@H]1O[C@@H](n2cc(C(N)=O)c(/N=N/N(C)C)n2)[C@H](OC(C)=O)[C@@H]1OC(C)=O` gave an Activity (Mus musculus [10]) of 1.1 g, an Activity (Mus musculus [11]) of 1.8 g and an Activity (Mus musculus [12]) of 0.1 g. For the same compound, the Activity (Mus musculus [22]) was 2.8 g, the Activity (L1210 [13]) was “Active” and the Activity (L1210 [14]) was “Active”. For the same compound, the Activity (L1210 [15]) was “Active”, the Activity (L1210 [23]) was “Active” and the T/C (L1210 [16]) was 89%. For the same compound, the T/C (L1210 [17]) was 105%, the T/C (L1210 [18]) was 100% and the T/C (L1210 [24]) was 107%.
